# Laboratory results as given in patent publication US7179823B1, “5-membered n-heterocyclic compounds with hypoglycemic and hypolipidemic activity” (Takeda Pharmaceutical Company Limited, priority 1999, dated 2007).
# System: KKA^y mice
# Assay: Total cholesterol lowering action and plasma anti-arteriosclerosis index-enhancing action in mice
# Assay type: in vivo
# Conditions: Mus musculus, po, 96 h, four days, non-treatment group taken as 100%; for change in vivo at 0.005 % / inhibition in vivo at 0.005 %: 0.005% in powdery diet; for change in vivo at 0.01 % / inhibition in vivo at 0.01 %: 0.01% in powdery diet
# Description: Total Cholesterol Lowering Action and Plasma Anti-Arteriosclerosis Index-Enhancing Action in Mice
# Test compounds were mixed in a powdery diet (CE-2, Japan Clea) at the concentration of 0.01% (compounds of Examples 12, 30, 89), 0.005% (compounds of Examples 38, 40, 44, 181, 184, 262, 283), or 0.001% (compounds of Examples 9, 156, 167, 172, 174, 176, 189), and freely given to KKA^y mice (9 to 12 weeks old, 5 mice per group), a model of obese and type 2 diabetes mellitus, for four days. During this period, water was given freely. Blood was sampled from orbital venous plexus and plasma was separated. Total cholesterol levels were determined by using L type Wako Cholesterol (Wako Pure Chemical Industries, Ltd.). Precipitation reagent for apoB containing lipoprotein was added to a part of the plasma to precipitate non-HDL lipoprotein, and cholesterol (HDL cholesterol) in the resulting supernatant was determined. The plasma anti-arteriosclerosis index [(HDL cholesterol/total cholesterol)×100] was calculated by using these cholesterol levels.
# In the Table, “Total cholesterol lowering action (%)” represents the percent reduction (%) of total cholesterol level in the treatment group, when the total cholesterol level in the non-treatment group is taken as 100%. “Plasma anti-arteriosclerosis index-enhancing action (%)” represents the percent increase (%) of plasma anti-arteriosclerosis index in the treatment group, when the plasma anti-arteriosclerosis index in the non-treatment group is taken as 100%.
# [1] = percent increase of [(HDL cholesterol/total cholesterol)×100], read-out: Plasma anti-arteriosclerosis index-enchancing action (%)
# [2] = percent reduction of plasma total cholesterol
SMILES,change in vivo at 0.005 % [1] [%],inhibition in vivo at 0.005 % [2] [%],change in vivo at 0.01 % [1] [%],inhibition in vivo at 0.01 % [2] [%],other results
"CCOc1nn(Cc2ccc(OCc3nc(-c4ccccc4)oc3C)nc2)cc1CC(=O)O [Example 262, 3-ethoxy-1-[6-(5-methyl-2-phenyl-4-oxazolylmethoxy)-3-pyridylmethyl]-1H-pyrazol-4-ylacetic acid]",9,22,–,–,–
"O=C(O)CCc1cn(Cc2ccc(OCc3csc(-c4ccco4)n3)cc2)cc1-c1ccccc1 [Example 38, 3-[1-[4-[2-(2-furyl)-4-thiazolylmethoxy]benzyl]-4-phenyl-3-pyrrolyl]propionic acid]",21,24,–,–,–
"O=C(O)CCc1cn(Cc2ccc(OCc3cccnc3)cc2)cc1-c1ccccc1 [Example 12, 3-[4-phenyl-1-[4-(3-pyridylmethoxy)benzyl]-3-pyrrolyl]propionic acid]",–,–,24,15,–
"O=C(O)CCc1cn(Cc2ccc(OCc3coc(-c4ccccc4)n3)cc2)cc1-c1ccccc1 [Example 44, 3-[4-phenyl-1-[4-(2-phenyl-4-oxazolylmethoxy]benzyl]-3-pyrrolyl]propionic acid]",21,23,–,–,–
"Cc1oc(-c2ccccc2)nc1COc1ccc(Cn2cc(CCC(=O)O)c(-c3ccccc3)n2)cn1 [Example 283, 3-[1-[2-(5-methyl-2-phenyl-4-oxazolylmethoxy)-5-pyridylmethyl]-3-phenyl-1H-pyrazol-4-yl]propionic acid]",19,24,–,–,–
"Cc1oc(-c2cccs2)nc1COc1ccc(Cn2cc(CCC(=O)O)c(-c3ccccc3)c2)cc1 [Example 9, 3-[1-[4-[5-methyl-2-(2-thienyl)-4-oxazolylmethoxy]benzyl]-4-phenyl-3-pyrrolyl]propionic acid]",–,–,–,–,"change in vivo at 0.001 % (0.001% in powdery diet, percent increase of [(HDL cholesterol/total cholesterol)×100], read-out: Plasma anti-arteriosclerosis index-enchancing action (%)): 12%; inhibition in vivo at 0.001 % (0.001% in powdery diet, percent reduction of plasma total cholesterol): 16%"
"Cc1oc(-c2ccccc2)nc1COc1ccc(Cn2cc(CCC(=O)O)c(-c3ccccc3)n2)cc1 [Example 89, 3-[1-[4-(5-methyl-2-phenyl-4-oxazolylmethoxy)benzyl]-3-phenyl-1H-pyrazol-4-yl]propionic acid]",–,–,15,8,–
"O=C(O)CCc1cn(Cc2ccc(OCc3csc(-c4cccs4)n3)cc2)cc1-c1ccccc1 [Example 40, 3-[4-phenyl-1-[4-[2-(2-thienyl)-4-thiazolylmethoxy]benzyl]-3-pyrrolyl]propionic acid]",22,19,–,–,–
"O=C(O)CCc1cn(Cc2ccc(OCc3csc(-c4ccccc4)n3)cc2)cc1-c1ccccc1 [Example 30, 3-[4-phenyl-1-[4-(2-phenyl-4-thiazolylmethoxy)benzyl]-3-pyrrolyl]propionic acid]",–,–,16,27,–
